Results published in US20190313678A1, “SUGAR-DIPEPTIDE CONJUGATES AS FLAVOR MOLECULES” (NESTEC S.A., priority 2016, published 2019).
Entries after “also recorded” stand apart in the source; their conditions may differ.

Assays:
[1] = cited from earlier work; for orosensation effect of subthreshold concentrations: together with L-glutamic acid and sodium and/or potassium ions, Dunkel and Hofmann 2009
[2] = Sensory evaluation of the compounds in water; details: 2 g/L in water; 12 panelists
Method: The compounds ornithine, ornithyl-β-alanine, 1-deoxy-D-fructosyl-N-ornithine, 1-deoxy-D-fructosyl-N-ornithyl-β-alanine and 1-deoxy-2-pentulofuranos-1-yl-Ornithine (Rib-Orn) were each dissolved and diluted in water in a final concentration of 2 g/L. The solutions were then evaluated by 12 panelists, which were previously screened and selected for their sensory abilities.

[3] = Sensory evaluation of the compounds in a chicken soup base; details: for Sensory inpact on chicken soup: chicken soup base, compounds added at 2 and 0.25 g/L, 12 panelists; for flavor impact in chicken soup base versus reference soup: ANOVA/LSD, alpha 5%
Method: Chicken soups were prepared by dissolving 6 g chicken base powder (detailed recipe shown in Table 1), 1 g monosodium glutamate and 1 g of sodium chloride in 500 mL hot water. 1-Deoxy-D-fructosyl-N-ornithyl-β-alanine, N-ornithyl-β-alanine, 1-deoxy-D-fructosyl-N-ornithine or alternatively 1-deoxy-2-pentulofuranos-1-yl-Ornithine (Rib-Orn) were then added separately at 2 and 0.25 g/L final concentrations.
The sensory evaluation was carried out by 12 panelists, previously screened for their sensory abilities. The panelists assessed a maximum of 6 samples per session. They had Vittel water and crackers as mouth cleansers. In all the cases, the panelists were instructed to evaluate the samples for the following attributes: overall flavor persistency, meaty, grilled/popcorn-like, bread-like, sweet, bitter, and salty. The samples were coded with random 3-digit numbers according to a balanced presentation design, heated at approximately 65° C. and then presented in 40 ml brown plastic containers and under red light to minimize appearance bias (the serving was approximately 25 ml per sample).
The following statistical tests were used to analyze the sensory raw data: First, the Analysis of Variance (ANOVA) with two factors, products (fixed factor) and subject (random factor) was computed in order to determine if there was any difference among samples. The limit of significance (alpha risk) was set at 5%. […] The limit of significance (alpha risk) was set at 5%.

[4] = Tomato soups with added compound (seasoning compositions); details: 2 g/L in tomato soup
Method: Tomato soups can be prepared by dissolving 6 g tomato base powder as can be obtained in the commerce in 500 mL hot water. 1-deoxy-D-fructosyl-N-ornithine or alternatively 1-Deoxy-D-fructosyl-N-ornithyl-β-alanine can be added at a concentration of 2 g/L to the soups in order to improve their taste and flavor profile.

[5] = Comparison of soup bases containing Fru-orn versus the mixture of glucose and ornithine; details: 2 g/L (6.82 mmol/L), 6 panelists
Method: A first soup was prepared by adding 2 g/L (6.82 mmol/L) 1-deoxy-D-fructosyl-N-ornithine in the soup base described above. A second soup was prepared by adding same molar concentration of glucose and ornithine. The solutions were then evaluated by 6 panelists following the same procedure than described above.

Cn1cncc1C[C@H](NC(=O)CCN)C(=O)O [L-anserine]
orosensation effect of subthreshold concentrations [1]: enhance the typical thick-sour orosensation and white-meaty character

N[C@@H](CCCNCC1(O)OC[C@@H](O)[C@@H](O)[C@@H]1O)C(=O)NCCC(=O)O (stereo partly drawn) [Fru-Orn-βala, 1-deoxy-D-fructosyl-N-ornithyl-β-alanine]
Flavour property in water (2 g/L) [2]: sweet, bread | grilled and bread attributes of chicken soup versus soup with orn-ala ([3]; 2 g/L each): enhanced significantly; also recorded: increases the desired grilled meat and bread flavor note | overall flavor persistency of chicken soup versus soup with orn-ala ([3]; 2 g/L each): significantly different | perceived bitterness of chicken soup versus soup with orn-ala ([3]; 2 g/L each): significantly decreasing; also recorded: reducing overall bitterness | Sensory inpact on chicken soup [3]: grilled/popcorn,; also recorded: bread, saltiness | grilled savory flavor of tomato soup versus reference soup [4]: more pronounced grilled savory flavor | perceived saltiness of tomato soup versus reference soup [4]: slightly more salty

NCCC[C@H](N)C(=O)NCCC(=O)O [Orn-ala, N-ornithyl-β-alanine, reference compound]
Flavour property in water (2 g/L) [2]: astringent | flavor impact in chicken soup base versus reference soup ([3]; 2 g/L): no statistically significant differences | Sensory inpact on chicken soup [3]: none | bitter masking effects against potassium salts ([1]; J. P. Ley 2008): bitter masking effects

NCCC[C@H](N)C(=O)O [Orn, L-ornithine]
off-taste inhibition in combination with bitter branched chain amino acids ([1]; J. P. Ley 2008): off-taste inhibitor

NCCC(=O)N[C@@H](Cc1cnc[nH]1)C(=O)O [L-carnosine]
orosensation effect of subthreshold concentrations [1]: enhance the typical thick-sour orosensation and white-meaty character

NCCC(=O)NCC(=O)O [β-alanylglycine]
orosensation effect of subthreshold concentrations [1]: enhance the typical thick-sour orosensation and white-meaty character

N[C@@H](CCCNCC1(O)OC[C@@H](O)[C@H]1O)C(=O)O (stereo partly shown) [Rib-Orn, 1-deoxy-2-pentulofuranos-1-yl-ornithine]
Flavour property in water (2 g/L) [2]: astringent, sour, metallic and slightly sweet; also recorded: Astringent, | flavor impact in chicken soup base versus reference soup ([3]; 0.25 g/L): both baked bread flavor and umami taste were significantly enhanced | Sensory inpact on chicken soup [3]: Grilled/bread,; also recorded: umami

N[C@@H](CCCNCC1(O)OCC(O)C(O)C1O)C(=O)O (stereo partly drawn) [Fru-Orn, 1-deoxy-D-fructosyl-N-ornithine]
Flavour property in water (2 g/L) [2]: salty | flavor impact in chicken soup base versus reference soup ([3]; 0.25 g/L): bread flavors were significantly perceived | flavor impact in chicken soup base versus reference soup ([3]; 2 g/L): grilled meat flavor and saltiness were significantly enhanced | Sensory inpact on chicken soup [3]: grilled/popcorn,; also recorded: bread, saltiness | saltiness versus soup with same molar concentration of glucose and ornithine ([5]; tasted with nose-clip): more salty | chicken flavor versus soup with same molar concentration of glucose and ornithine ([5]; tasted without nose-clip): greater chicken flavor | grilled savory flavor of tomato soup versus reference soup [4]: more pronounced grilled savory flavor | perceived saltiness of tomato soup versus reference soup [4]: slightly more salty

NCCC[C@H](N)C(=O)NCCS(=O)(=O)O [L-ornithinyltaurine]
bitter masking effects against potassium salts ([1]; J. P. Ley 2008): bitter masking effects | taste produced ([1]; Tamura et al. 1989): salty taste
